Measured values from ChEMBL document CHEMBL4673353, “Switching a Xanthine Oxidase Inhibitor to a Dual-Target Antagonist of P2Y and P2Y as an Oral Antiplatelet Agent with a Wider Therapeutic Window in Rats than Ticagrelor” (J Med Chem, 2020).

Tests used:
[1] = Solubility of compound; assay type: physicochemical
[2] = target: T1, CYP2A6 (Homo sapiens, UniProt P11509); test: Inhibition of CYP2A6 in human liver microsomes at 10 uM using coumarin as substrate preincubated for 5 mins followed by NADPH generating system addition and measured after 120 mins by LC-MS/MS analysis relative to control; assay type: ADME; conditions: probe coumarin, time 125 min
T1 sequence (P11509 whole entry): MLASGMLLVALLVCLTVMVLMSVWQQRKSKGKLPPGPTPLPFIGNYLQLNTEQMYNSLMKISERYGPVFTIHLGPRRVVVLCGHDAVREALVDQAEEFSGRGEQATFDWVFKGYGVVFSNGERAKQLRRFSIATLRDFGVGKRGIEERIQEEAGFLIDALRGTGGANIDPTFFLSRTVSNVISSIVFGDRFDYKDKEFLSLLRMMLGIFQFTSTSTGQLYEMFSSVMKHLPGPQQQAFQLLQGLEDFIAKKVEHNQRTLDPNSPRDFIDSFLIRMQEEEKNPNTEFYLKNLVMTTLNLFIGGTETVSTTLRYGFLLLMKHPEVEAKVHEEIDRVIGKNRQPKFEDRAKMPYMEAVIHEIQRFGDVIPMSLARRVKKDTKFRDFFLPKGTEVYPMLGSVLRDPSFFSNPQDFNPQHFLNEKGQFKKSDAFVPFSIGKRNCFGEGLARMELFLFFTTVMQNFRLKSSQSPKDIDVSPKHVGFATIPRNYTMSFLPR

[3] = test system: Plasma; test: Antiplatelet activity in rabbit platelet-rich plasma assessed as inhibition of ADP-induced platelet aggregation preincubated for 5 mins followed by ADP addition measured every 1 min for up to 6 mins by microplate reader analysis; assay type: functional, cell-free; conditions: Oryctolagus cuniculus
[4] = Stability of compound in simulated gastric fluid assessed as parent compound remaining at 10 uM after 12 hrs by HPLC analysis relative to control
[5] = Stability of compound in simulated intestinal fluid assessed as parent compound remaining at 10 uM after 12 hrs by HPLC analysis relative to control
[6] = Metabolic stability of compound in rat liver microsomes assessed as elimination half-life at 0.2 uM in presence of NADPH by LC-MS/MS analysis; assay type: ADME, Microsome; conditions: read-out: beta t1/2
[7] = Metabolic stability of compound in human liver microsomes assessed as elimination half-life at 0.2 uM in presence of NADPH by LC-MS/MS analysis; assay type: ADME, Microsome; conditions: read-out: beta t1/2
[8] = target: T2, CYP1A2 (Homo sapiens, UniProt P05177); test: Inhibition of CYP1A2 in human liver microsomes at 10 uM using phenacetin as substrate preincubated for 5 mins followed by NADPH generating system addition and measured after 120 mins by LC-MS/MS analysis relative to control; assay type: ADME; conditions: probe phenacetin, time 125 min
T2 sequence (P05177 whole entry): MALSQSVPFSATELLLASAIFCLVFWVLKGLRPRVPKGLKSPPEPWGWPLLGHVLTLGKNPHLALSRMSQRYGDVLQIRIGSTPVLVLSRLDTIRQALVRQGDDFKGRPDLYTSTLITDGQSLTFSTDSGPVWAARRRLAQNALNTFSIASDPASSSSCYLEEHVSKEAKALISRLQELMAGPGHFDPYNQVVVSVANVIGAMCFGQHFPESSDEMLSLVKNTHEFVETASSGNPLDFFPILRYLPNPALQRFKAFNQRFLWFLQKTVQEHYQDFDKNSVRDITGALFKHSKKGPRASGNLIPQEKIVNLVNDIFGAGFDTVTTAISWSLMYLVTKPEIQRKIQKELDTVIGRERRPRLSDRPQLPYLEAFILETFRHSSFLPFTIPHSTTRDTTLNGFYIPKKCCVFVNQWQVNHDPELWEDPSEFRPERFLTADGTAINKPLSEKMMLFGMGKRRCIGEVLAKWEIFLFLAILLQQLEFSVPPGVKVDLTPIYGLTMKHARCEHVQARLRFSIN

[9] = target: CYP2C9 (Homo sapiens, UniProt P11712); test: Inhibition of CYP2C9 in human liver microsomes at 10 uM using tolbutamide as substrate preincubated for 5 mins followed by NADPH generating system addition and measured after 120 mins by LC-MS/MS analysis relative to control; assay type: ADME; conditions: probe tolbutamide, time 125 min
[10] = target: CYP2C19 (Homo sapiens, UniProt P33261); test: Inhibition of CYP2C19 in human liver microsomes at 10 uM using S-mephenytoin as substrate preincubated for 5 mins followed by NADPH generating system addition and measured after 120 mins by LC-MS/MS analysis relative to control; assay type: ADME; conditions: probe S-mephenytoin, time 125 min
[11] = target: CYP2D6 (Homo sapiens, UniProt P10635); test: Inhibition of CYP2D6 in human liver microsomes at 10 uM using dextromethorphan as substrate preincubated for 5 mins followed by NADPH generating system addition and measured after 120 mins by LC-MS/MS analysis relative to control; assay type: ADME; conditions: probe dextromethorphan, time 125 min
[12] = target: CYP2E1 (Homo sapiens, UniProt P05181); test: Inhibition of CYP2E1 in human liver microsomes at 10 uM using chlorzoxazone as substrate preincubated for 5 mins followed by NADPH generating system addition and measured after 120 mins by LC-MS/MS analysis relative to control; assay type: ADME; conditions: probe chlorzoxazone, time 125 min
[13] = target: CYP3A4 (Homo sapiens, UniProt P08684); test: Inhibition of CYP3A4 in human liver microsomes at 10 uM using testosterone as substrate preincubated for 5 mins followed by NADPH generating system addition and measured after 120 mins by LC-MS/MS analysis relative to control; assay type: ADME; conditions: probe testosterone, time 125 min
[14] = Cmax in male Sprague-Dawley rat at 10 mg/kg, po administered as single dose by LC-MS analysis; assay type: ADME, organism-based; set-up: route oral, dose 10 mg/kg; conditions: in vivo
[15] = Tmax in male Sprague-Dawley rat at 10 mg/kg, po administered as single dose by LC-MS analysis; assay type: ADME, organism-based; conditions: in vivo
[16] = AUC (0 to infinity) in male Sprague-Dawley rat at 10 mg/kg, po administered as single dose by LC-MS analysis; assay type: ADME, organism-based; set-up: route oral, time infinity, dose 10 mg/kg; conditions: in vivo
[17] = Elimination half-life in male Sprague-Dawley rat at 10 mg/kg, po administered as single dose by LC-MS analysis; assay type: ADME, organism-based; conditions: in vivo, read-out: beta t1/2 (converted)
[18] = Apparent volume of distribution in male Sprague-Dawley rat at 10 mg/kg, po administered as single dose by LC-MS analysis; assay type: ADME, organism-based; conditions: in vivo
[19] = Clearance in male Sprague-Dawley rat at 10 mg/kg, po administered as single dose by LC-MS analysis; assay type: ADME, organism-based; conditions: in vivo
[20] = test system: Rattus norvegicus; test: Antithrombotic activity in FeCl3-induced Sprague-Dawley rat model of arterial thrombosis assessed as reduction in thrombus weight at 5 mg/kg, po qd administered as single dose for 7 days and measured 2 hrs post last dose; assay type: functional; set-up: scale not given: the % may be the effect or the level left; conditions: time 7 day
[21] = test system: Rattus norvegicus; test: Antithrombotic activity in FeCl3-induced Sprague-Dawley rat model of arterial thrombosis assessed as reduction in thrombus weight at 10 mg/kg, po qd administered as single dose for 7 days and measured 2 hrs post last dose; assay type: functional; set-up: scale not given: the % may be the effect or the level left; conditions: time 7 day
[22] = test system: Rattus norvegicus; test: Antithrombotic activity in FeCl3-induced Sprague-Dawley rat model of arterial thrombosis assessed as reduction in thrombus weight at 20 mg/kg, po qd administered as single dose for 7 days and measured 2 hrs post last dose; assay type: functional; set-up: scale not given: the % may be the effect or the level left; conditions: time 7 day

Sequence of CYP2C19 (P33261 whole entry): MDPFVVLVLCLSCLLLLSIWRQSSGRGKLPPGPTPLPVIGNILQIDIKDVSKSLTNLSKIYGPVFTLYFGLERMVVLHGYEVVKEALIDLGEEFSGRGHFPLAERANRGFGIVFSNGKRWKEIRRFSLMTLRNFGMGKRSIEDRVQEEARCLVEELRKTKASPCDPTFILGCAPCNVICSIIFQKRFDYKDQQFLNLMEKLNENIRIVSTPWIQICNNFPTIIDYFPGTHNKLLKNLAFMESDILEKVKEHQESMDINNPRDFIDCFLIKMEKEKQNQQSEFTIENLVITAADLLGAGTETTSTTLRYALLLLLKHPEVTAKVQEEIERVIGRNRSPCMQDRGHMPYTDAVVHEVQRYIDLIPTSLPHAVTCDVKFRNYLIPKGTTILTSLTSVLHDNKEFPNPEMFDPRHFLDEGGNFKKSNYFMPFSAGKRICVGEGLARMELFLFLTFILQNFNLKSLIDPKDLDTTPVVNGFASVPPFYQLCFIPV
Sequence of CYP2C9 (P11712 whole entry): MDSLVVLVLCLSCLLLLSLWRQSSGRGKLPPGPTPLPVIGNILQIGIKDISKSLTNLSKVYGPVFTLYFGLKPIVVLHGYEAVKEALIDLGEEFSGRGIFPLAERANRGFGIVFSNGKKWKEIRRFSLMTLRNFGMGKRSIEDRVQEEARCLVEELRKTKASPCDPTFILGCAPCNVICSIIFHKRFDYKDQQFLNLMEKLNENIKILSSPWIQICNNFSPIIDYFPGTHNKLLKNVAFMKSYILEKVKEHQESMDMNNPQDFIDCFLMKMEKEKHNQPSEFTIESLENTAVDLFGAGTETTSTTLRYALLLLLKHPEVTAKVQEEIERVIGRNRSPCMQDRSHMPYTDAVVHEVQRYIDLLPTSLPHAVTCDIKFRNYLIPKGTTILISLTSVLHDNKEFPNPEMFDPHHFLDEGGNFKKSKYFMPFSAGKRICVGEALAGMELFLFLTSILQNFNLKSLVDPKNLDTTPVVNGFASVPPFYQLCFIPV
Sequence of CYP2D6 (P10635 whole entry): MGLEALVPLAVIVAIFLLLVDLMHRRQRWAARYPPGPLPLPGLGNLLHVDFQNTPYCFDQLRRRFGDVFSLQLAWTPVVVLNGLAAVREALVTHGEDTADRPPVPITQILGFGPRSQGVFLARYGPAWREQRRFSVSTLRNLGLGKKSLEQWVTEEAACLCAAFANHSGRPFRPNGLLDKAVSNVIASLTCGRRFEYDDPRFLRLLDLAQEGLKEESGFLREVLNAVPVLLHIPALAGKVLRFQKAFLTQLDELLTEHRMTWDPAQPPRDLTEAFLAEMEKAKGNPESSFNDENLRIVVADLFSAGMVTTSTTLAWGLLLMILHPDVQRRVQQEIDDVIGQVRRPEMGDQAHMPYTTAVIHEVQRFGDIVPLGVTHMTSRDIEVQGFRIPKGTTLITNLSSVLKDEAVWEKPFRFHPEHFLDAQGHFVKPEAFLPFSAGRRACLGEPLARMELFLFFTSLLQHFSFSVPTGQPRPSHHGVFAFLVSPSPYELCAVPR
Sequence of CYP3A4 (P08684 whole entry): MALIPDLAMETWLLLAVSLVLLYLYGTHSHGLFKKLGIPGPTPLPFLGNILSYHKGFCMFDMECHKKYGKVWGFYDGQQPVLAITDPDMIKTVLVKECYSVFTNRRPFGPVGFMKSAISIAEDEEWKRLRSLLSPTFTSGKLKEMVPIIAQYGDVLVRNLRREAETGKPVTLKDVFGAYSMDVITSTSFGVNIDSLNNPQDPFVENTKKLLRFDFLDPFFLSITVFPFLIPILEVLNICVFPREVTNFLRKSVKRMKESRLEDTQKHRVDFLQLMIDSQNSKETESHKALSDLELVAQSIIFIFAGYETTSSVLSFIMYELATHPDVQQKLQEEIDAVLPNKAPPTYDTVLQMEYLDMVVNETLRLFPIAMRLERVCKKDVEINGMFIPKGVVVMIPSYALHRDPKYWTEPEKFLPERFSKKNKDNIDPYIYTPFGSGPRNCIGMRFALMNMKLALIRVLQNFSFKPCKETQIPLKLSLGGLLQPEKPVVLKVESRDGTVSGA
Sequence of CYP2E1 (P05181 whole entry): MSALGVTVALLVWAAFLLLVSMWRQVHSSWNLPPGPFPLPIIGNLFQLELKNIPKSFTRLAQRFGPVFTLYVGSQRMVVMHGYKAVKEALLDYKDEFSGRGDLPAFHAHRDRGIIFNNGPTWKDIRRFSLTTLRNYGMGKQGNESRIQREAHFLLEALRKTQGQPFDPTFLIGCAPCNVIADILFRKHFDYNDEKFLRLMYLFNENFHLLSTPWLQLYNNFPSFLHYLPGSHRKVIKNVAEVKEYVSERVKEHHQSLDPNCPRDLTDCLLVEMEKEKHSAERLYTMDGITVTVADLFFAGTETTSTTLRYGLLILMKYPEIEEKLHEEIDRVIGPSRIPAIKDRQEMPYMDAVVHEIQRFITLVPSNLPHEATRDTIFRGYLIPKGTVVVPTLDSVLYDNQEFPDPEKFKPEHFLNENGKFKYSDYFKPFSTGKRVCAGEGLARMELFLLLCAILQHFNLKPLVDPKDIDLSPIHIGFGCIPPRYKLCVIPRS

Structure (SMILES)	inhibition at 2 h, 10 µM [2] [%]	IC50 [3] [µM]	Stability [4] [%]	Stability [5] [%]	half-life at 0.2 µM [6] [h]	half-life at 0.2 µM [7] [h]	inhibition at 2 h, 10 µM [8] [%]	inhibition at 2 h, 10 µM [9] [%]	inhibition at 2 h, 10 µM [10] [%]	inhibition at 2 h, 10 µM [11] [%]	inhibition at 2 h, 10 µM [12] [%]	inhibition at 2 h, 10 µM [13] [%]	Cmax [14] [ng/mL]	Tmax [15] [h]	AUC(0-inf) [16] [ng·h/mL]	half-life [17] [h]	Vz [18] [L/kg]	CL/F [19] [mL/min/kg]	further results
CCOC(=O)c1c(C)nc(-c2cccc(C#N)c2)n1OCc1ccc(C#N)cc1	7.69	4.24	90	93	0.385	2.01	3.85	0.024	4.52	31.7	8.68	2.16	68	0.46	1140	13.8	190.56	207	solubility [1]: Insoluble; Activity [20]: 22.6%; Activity [21]: 40.7%; Activity [22]: 46.7%
Cc1nc(-c2cccc(C#N)c2)n(OCc2ccc(C#N)cc2)c1C(=O)O	3.64	3.88	90	73	> 2	> 2	0.11	0.41	1.97	2.42	6.79	7.4	214	0.167	809	13.1	239.6	261	
